This is an account of results in patent US10071987B2, “Aminomethylene pyrazolones with therapeutic activity” (Compound Handling B.V., priority 2012, dated 2018).

“And” between values parts separate entries of the source, which are not always exact repeats. Equal values may be shown once.

The term inhibition denotes the change of the read-out against control, counted positive when it falls.

In one experiment the test system is PC3 cells. Nature of the experiment: Cell invasion assay (BD Biocoat Matrigel Invasion chambers, CellTiter-GLO readout). The experiment is classed as cell-based, human. The following applies: Homo sapiens, PC-3, PC3 cells incubated with compound (10 μM) for 4 days prior to assay; 48 hours invasion; versus DMSO treated cells; several values = repeated assays. The text has this:
For determining the effectiveness of the compounds according to the invention, a model assay based on the migration of cells in a migration chamber was employed. This model is accepted in the art as providing representative data on the ability of cells to metastasize.
The PC-3 prostate cancer cell line (ATCC# CRL-1435) was maintained in RPMI-1640 medium (Invitrogen, 31870), supplemented with 10% Fetal Bovine Serum (Sigma, F7524), L-Glutamine (Invitrogen 25030-024). Cells were split once a week at a 1:10 ratio.
For cell invasion assays, PC3 cells were incubated in the presence of a compound according to the invention (10 μM) for 4 days, prior to the invasion assay. Forty thousand cells were seeded into BD Biocoat Matrigel Invasion chambers (8 micron; BD 354480) in serum-free medium. The invasion chamber was placed in a 24-well containing medium with 10% fetal calf serum as chemo-attractant. As a control, the same amount of cells was seeded in 24-well culture plates. After 48 hours incubation, cells in the invasion chamber were removed by aspiration and cleaning the inner compartment with a cotton swab. The invasion chamber was then put into CellTiter-GLO (CTG, Promega-G7571) cell viability reagent, incubated for 15 minutes, and then analyzed on a Victor3 luminometer. Cell invasion was calculated as the CTG activity on the lower part of the membrane divided by the CTG activity of the cells grown in a 24 well plate. Inhibition of cell invasion by a specific compound was estimated by comparing the amount of cell invasion of compound-treated cells versus DMSO treated cells.
On the technique in general: Cellular ATP, detected with luciferase, serves as a proxy for viable cell number.
For `CC1=NN(c2nc3ccccc3s2)C(=O)/C1=C/N1CCCCC1`, the inhibition at 10 µM came to 88%.

Consider `COc1ccc(CN/C=C2/C(=O)N(c3nc4ccccc4s3)N=C2c2ccccc2)cc1`, for which the inhibition at 10 µM is 35%.

For `COc1ccc2nc(N3N=C(c4ccccc4)/C(=C\N)C3=O)sc2c1`, the inhibition at 10 µM was 70%.

On to `N/C=C1/C(=O)N(c2nc3ccccc3s2)N=C1c1ccc(Br)s1`, for which the inhibition at 10 µM stood at 57%.

For `N/C=C1/C(=O)N(c2nc3ccccc3s2)N=C1c1cccc(I)c1`, the inhibition at 10 µM is 86%.

On to `N/C=C1/C(=O)N(c2nc3ccccc3s2)N=C1c1ccccc1`, for which the inhibition at 10 µM stood at 52%.

Take `CN/C=C1/C(=O)N(c2nc3ccccc3s2)N=C1c1cccs1`: the inhibition at 10 µM was determined as 75%.

As for `N/C=C1/C(=O)N(c2nc3ccccc3s2)N=C1c1cccc(C(F)(F)F)c1` [drawing 33], the inhibition at 10 µM came to 91%.

For the compound `N/C=C1/C(=O)N(c2nc3ccccc3s2)N=C1c1cccc(Cl)c1`, the inhibition at 10 µM was found to be 91%.

In the case of `N/C=C1/C(=O)N(c2nc3ccc([N+](=O)[O-])cc3s2)N=C1c1cccc(C(F)(F)F)c1`, the inhibition at 10 µM was 73%.

Regarding `N/C=C1/C(=O)N(c2nc3ccc(Cl)cc3s2)N=C1c1ccccc1`, the inhibition at 10 µM is 89%.

In the case of `N/C=C1/C(=O)N(c2nc3ccccc3s2)N=C1c1cccc(Br)c1`, the inhibition at 10 µM was found to be 87%.

For the compound `Cc1ccc(C2=NN(c3nc4ccccc4s3)C(=O)/C2=C/N)cc1Br`, the inhibition at 10 µM stood at 57%.

`N/C=C1/C(=O)N(c2nc3ccccc3s2)N=C1c1cc2ccccc2s1`: the inhibition at 10 µM came out at 76%.

In the case of `Cc1ccc2nc(N3N=C(c4cccc(C(F)(F)F)c4)/C(=C\N)C3=O)sc2c1`, the inhibition at 10 µM was determined as 67%.

As to `C/C(NCc1ccc(Cl)c(Cl)c1)=C1\C(=O)N(c2nc3ccccc3s2)N=C1C(F)(F)F`, the inhibition at 10 µM amounted to 56%.

The experiment is the same for the next values; noted with them: PC3 cells incubated with compound (10 μM) for 4 days prior to assay; 48 hours invasion; versus DMSO treated cells; several values = repeated assays; 10 µM.
On to `N/C=C1/C(=O)N(c2nc3ccccc3s2)N=C1c1cccc(C(F)(F)F)c1` [drawing 36], for which the “Results % inhibition of invasion in invasion assays” value (“Results % inhibition of invasion” for short) was 89% and 82% and 78%.

As to `N/C=C1/C(=O)N(c2nc3ccccc3s2)N=C1c1ccccc1`, the “Results % inhibition of invasion” value was 49% and 45%.

As to `N/C=C1/C(=O)N(c2nc3ccccc3s2)N=C1c1cccc(Br)c1`, the “Results % inhibition of invasion” value is given as 76%.

For another experiment, the system named is PC-3M-Pro4luc+ cells. Nature of the experiment: Formation of de novo skeletal metastases in mice, whole body bioluminescence imaging. The experiment is classed as in vivo. The conditions noted are these: treatment of mice. From the text: Treatment of mice with 4-[1-aminomethylidene]-2-benzothiazol-2-yl-5-phenyl-2,4-dihydro-pyrazol-3-one decreased the number of bone lesions and metastatic tumor burden. Cancer cells and tumor burden were monitored by whole body bioluminescence imaging. […] Such in vivo testing may lead to further selection, preference, deselection or disfavor of individual compounds for further programs for development of a compound for use in a prescription medicine. A particular compound of interest for such advanced testing is, 4-(aminomethylene)-2-(2-benzothiazolyl)-2,4-dihydro-5-(3-chlorophenyl)-3H-pyrazol-3-one.
Take `NC=C1C(=O)N(c2nc3ccccc3s2)N=C1c1ccccc1` [Example 2, 4-[1-Aminomethylidene]-2-benzothiazol-2-yl-5-phenyl-2,4-dihydro-pyrazol-3-one]: the metastatic tumor burden entry is “decreased” and the “number of bone lesions” value is “decreased”.
